Patent US4333938A, “Imino derivatives of 5-aminobenzodioxole-1,3 which are useful as medicaments” (Laboratoires Sarget, priority 1979, dated 1982)
“And” between values parts separate entries of the source, which are not always exact repeats. Equal entries are not always repeated.

How the values were obtained:
[1] = oral toxicity (mortality) in the mouse; details: in vivo, Swiss mice
Experimental: (§1) The percentages of mortality produced by the compounds of this invention when administered orally to Swiss mice are shown in Table 1. The animals, free from specific pathogenic organisms were housed in an air conditioned room for 24 to 48 hours before the start of the experiment. They were separated into groups of 5 males and 5 females. The materials were administered to animals which had been fasted for 24 hours by means of a gastric tube in suspension in a 6% thickened julep using a volume equivalent to 0.1 ml per 10 g of body weight. […] They remained under observation for two weeks before being sacrificed and autopsied.

stomachs = assay: ulcerogenic activity; format: in vivo, female Wistar rat; details: 150 mg/kg daily
Experimental: The ulcerogenic activity was determined in the female Wistar rat using a variation of the procedure described by J. M. Lwoff, J. Pharmacol. 1971, 3, 1, 81-3. The test substance was administered daily for 3 days to the animals maintained on a aqueous diet. The stomachs were removed after 1, 2, and 3 days of treatment and the ulcerations were classified from 0 to 4. The ulceration index is calculated for each group of animals as the product (average of the classes x the percentage of animals afflicted), while distinguishing acute ulcerations from ulcers which were in the process of healing.

Wistar rat = assay: oral toxicity (mortality) in the Wistar rat; format: in vivo; details: 3000 mg/kg
Experimental: as §1
The toxicities of the compounds of Examples 2 and 3 were determined in the Wistar rat. The protocol which was followed was the same as that described for the mice, except that the compounds were administered in a volume equivalent to 0.5 ml per 100 g of body weight of rat. […] The product of Example 3 produced no mortality at 2000 mg/kg and 20% mortality at 3000 mg/kg.

blood sugar level = assay: antidiabetic activity, blood sugar level in streptozotocin hyperglycemic rats; format: in vivo, Female rats; details: oral
Experimental: Female rats weighing 180-200 grams were given an intraperitoneal dose on day J0 of 100 mg/kg of streptozotocin in a 0.05 M citrate buffer at a pH of 4.5 calculated as 0.5 ml per 100 g of body weight. On day J2 hyperglycemic animals were selected by determining the blood sugar level by the orthotoludine method in a stream continuously removed from the retroorbital sinus. […] On day J3, without previous fasting, the selected animals received the treatment. This consisted of oral administration of the test compound in a 6% aqueous suspension of gum arabic at a volume of 0.5 ml per 100 g of body weight.
The animals were sacrificed one, two, or four hours after the treatment and their blood sugar levels were determined. Each group of animals was compared to a control group of animals which received only the suspension of gum arabic. Metformin was the substance chosen as the control.
The results are given in Table 8 which indicates the percentage of decrease in the blood sugar level produced by the treatment.

cotton pellet granulomas = assay: inhibition of cotton pellet granulomas; format: in vivo, male Sprague-Dawley rats; details: oral, daily for 10 days
Experimental: Two cotton pellets weighing 70 mg were implanted under the back skin of male Sprague-Dawley rats anesthetized with ether. Starting the next day, the compound was administered orally daily for 10 days. The rats were sacrificed and the pellets were removed and weighed before and after drying at 50° C. for 24 hours. The weights used were those obtained after deduction of the weight of the implants. The average of the quantities so calculated was determined for each group and compared to the averages of the control group.

[2] = system: carrageenan-induced granulomas; assay: activity on carrageenan-induced granulomas; format: in vivo, Male Wistar rats
Experimental: Male Wistar rats weighing 130 to 150 grams were given a subcutaneous injection in the central part of the skin of the back of 0.5 ml of an aqueous suspension of carrageenan. Two doses of the test substance are administered, one 30 minutes before and the other 6 hours after carrageenan. At the end of 24 hours the rats were sacrificed and the granulomas were removed and weighed before and after drying for 24 hours at 50° C. The difference in weight of the granulomas wet and dry represents the exudate
These AD50 are respectively 175(142-215) and 175(150-205) mg/kg.

carageenan-induced edema = assay: inhibition of carrageenan-induced edema; format: in vivo, male Wistar rat; details: oral
Experimental: The inflammation is produced in the male Wistar rat by injection of 0.1 ml of a 0.5% suspension of carageenan in physiological serum, into the muscular fascia of the metatarsal region of the hind foot of the animal. The test substance is administered orally at the same time as the carageenan or 30 or 60 min before carageenan. The edema is measured by plethysmometry three hours after the adminstration of the carrageenan.

[3] = system: edema produced by serotonin; assay: inhibition of serotonin-induced edema; format: in vivo, Wistar rat; details: oral, 30 minutes before serotonin
Experimental: In the Wistar rat inflammation is induced by intrapedal injection of 0.1 ml of a 0.02% solution of serotonin in physiological serum. The test substance is administered orally 30 minutes before the serotonin and the edema is measured by plethysmometry one hour after its release.

Cc1ccc(C=Nc2ccc3c(c2)OCO3)s1 [Example 2, N-(5-methyl-2-thienylidene)-5-aminobenzodioxole-1,3]
mortality at 336 h ([1]; 750 mg/kg): 10%
mortality at 336 h ([1]; 1000 mg/kg): 20%
mortality at 336 h ([1]; 1250 mg/kg): 0%
mortality at 336 h ([1]; 1500 mg/kg): 60%
Ulceration Index, acute (stomachs; Day 1): 6
Ulceration Index, healing (stomachs; Day 1): 0
Ulceration Index, acute (stomachs; Day 2): 2
Ulceration Index, healing (stomachs; Day 2): 6
Ulceration Index, acute (stomachs; Day 3): 48
Ulceration Index, healing (stomachs; Day 3): 28
mortality (in words) (Wistar rat): no mortality
Percentage Decrease in the Blood Sugar (blood sugar level; 50 mg/kg, treatment 1 h before sacrificing): 13%
Percentage Decrease in the Blood Sugar (blood sugar level; 50 mg/kg, treatment 2 h before sacrificing): 22%
Percentage Decrease in the Blood Sugar (blood sugar level; 50 mg/kg, treatment 4 h before sacrificing): 12%
Percentage Decrease in the Blood Sugar (blood sugar level; 100 mg/kg, treatment 1 h before sacrificing): 22%
Percentage Decrease in the Blood Sugar (blood sugar level; 100 mg/kg, treatment 2 h before sacrificing): 32%
Percentage Decrease in the Blood Sugar (blood sugar level; 100 mg/kg, treatment 4 h before sacrificing): 27%
Percentage Decrease in the Blood Sugar (blood sugar level; 200 mg/kg, treatment 1 h before sacrificing): 24%
Percentage Decrease in the Blood Sugar (blood sugar level; 200 mg/kg, treatment 2 h before sacrificing): 35%
Percentage Decrease in the Blood Sugar (blood sugar level; 200 mg/kg, treatment 4 h before sacrificing): 31%
% inhibition with respect to dry pellets (cotton pellet granulomas; dose 150): 5%
% inhibition with respect to wet pellets (cotton pellet granulomas; dose 150): 12%
% inhibition with respect to dry pellets (cotton pellet granulomas; dose 300): 23%
% inhibition with respect to wet pellets (cotton pellet granulomas; dose 300): 17%
Exudate, % activity ([2]; 100 mg/kg administered twice): 31%
Exudate, % animals 30% protected ([2]; 100 mg/kg administered twice): 62%
Exudate, % animals 30% protected ([2]; 150 mg/kg administered twice): 25% and 14%
Weight of dry granuloma, % animals 30% protected ([2]; 150 mg/kg administered twice): 25% and 14%
Weight of wet granuloma, % animals 30% protected ([2]; 150 mg/kg administered twice): 25% and 14%
Exudate, % activity ([2]; 200 mg/kg administered twice): 39%
Exudate, % animals 30% protected ([2]; 200 mg/kg administered twice): 75%
Weight of dry granuloma, % activity ([2]; 200 mg/kg administered twice): 41% and 22%
Weight of dry granuloma, % animals 30% protected ([2]; 200 mg/kg administered twice): 75% and 50%
Weight of wet granuloma, % activity ([2]; 200 mg/kg administered twice): 39% and 24%
Weight of wet granuloma, % animals 30% protected ([2]; 200 mg/kg administered twice): 75% and 50%
Exudate, % activity ([2]; 300 mg/kg administered twice): 18%
Exudate, % animals 30% protected ([2]; 300 mg/kg administered twice): 2%
Weight of dry granuloma, % activity ([2]; 300 mg/kg administered twice): 9%
Weight of dry granuloma, % animals 30% protected ([2]; 300 mg/kg administered twice): 25%
Weight of wet granuloma, % activity ([2]; 300 mg/kg administered twice): 18%
Weight of wet granuloma, % animals 30% protected ([2]; 300 mg/kg administered twice): 25%
ED50 ([2]; Rattus norvegicus, 24 h, dose which protects 50% of the animals to the extent of 30% with respect to wet weight of the granuloma, read-out: AD50 (the source's name)): 175 mg/kg
% inhibiting activity on carrageenan-induced edema (carageenan-induced edema; To - 30, 75 mg/kg): 21%
% inhibiting activity on carrageenan-induced edema (carageenan-induced edema; To - 30, 150 mg/kg): 47%
% inhibiting activity on carrageenan-induced edema (carageenan-induced edema; To - 30, 300 mg/kg): 61%
% inhibiting activity on carrageenan-induced edema (carageenan-induced edema; To - 60, 75 mg/kg): 15%
% inhibiting activity on carrageenan-induced edema (carageenan-induced edema; To - 60, 150 mg/kg): 26%
% inhibiting activity on carrageenan-induced edema (carageenan-induced edema; To - 60, 225 mg/kg): 49%
% inhibiting activity on carrageenan-induced edema (carageenan-induced edema; To - 60, 300 mg/kg): 66%
% inhibiting activity on carrageenan-induced edema (carageenan-induced edema; at To, 100 mg/kg): 30%
% inhibiting activity on carrageenan-induced edema (carageenan-induced edema; at To, 150 mg/kg): 64%
% inhibiting activity on carrageenan-induced edema (carageenan-induced edema; at To, 200 mg/kg): 33%
% inhibiting activity on carrageenan-induced edema (carageenan-induced edema; at To, 300 mg/kg): 59%
% inhibitory activity on serotonin edema ([3]; 100 mg/kg): 39%
% inhibitory activity on serotonin edema ([3]; 200 mg/kg): 29%
% inhibitory activity on serotonin edema ([3]; 400 mg/kg): 37%
